Data from article PMC3119665, “A New Drug Design Targeting the Adenosinergic System for Huntington's Disease” (PLoS ONE, 2011).

What was measured:
[1] = tested on: Serotonin (5-Hydroxytryptamine) 5-HT1, Non-Selective; assay: Radioligand binding panel (Table S1); design: species or system rat; conditions: 10 μM T1-11, n 2
[2] = target: T1, Prostanoid CRTH2 (Homo sapiens, UniProt Q9Y5Y4); assay: Radioligand binding panel (Table S1); conditions: 10 μM T1-11, n 2
T1 construct: purchased MDS Pharma Services Taiwan
T1 sequence (Q9Y5Y4 whole entry): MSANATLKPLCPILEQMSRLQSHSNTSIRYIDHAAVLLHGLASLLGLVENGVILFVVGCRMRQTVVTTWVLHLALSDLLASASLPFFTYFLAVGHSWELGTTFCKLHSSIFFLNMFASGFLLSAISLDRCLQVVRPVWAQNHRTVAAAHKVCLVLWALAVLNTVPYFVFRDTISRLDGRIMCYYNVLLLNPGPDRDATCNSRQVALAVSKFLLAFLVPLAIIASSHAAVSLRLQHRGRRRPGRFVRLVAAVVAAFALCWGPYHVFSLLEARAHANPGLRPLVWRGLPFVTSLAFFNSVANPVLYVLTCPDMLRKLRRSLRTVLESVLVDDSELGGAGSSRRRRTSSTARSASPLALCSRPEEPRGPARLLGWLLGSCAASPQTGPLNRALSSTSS

[3] = tested on: Glutamate, Non-Selective; assay: Radioligand binding panel (Table S1); design: species or system rat; conditions: 10 μM T1-11, n 2
[4] = tested on: Platelet-Derived Growth Factor (PDGF); assay: Radioligand binding panel (Table S1); design: species or system mouse; conditions: 10 μM T1-11, n 2
[5] = target: T2, Cannabinoid CB1 (Homo sapiens, UniProt P21554); assay: Radioligand binding panel (Table S1); conditions: 10 μM T1-11, n 2
T2 construct: purchased MDS Pharma Services Taiwan
T2 sequence (P21554 whole entry): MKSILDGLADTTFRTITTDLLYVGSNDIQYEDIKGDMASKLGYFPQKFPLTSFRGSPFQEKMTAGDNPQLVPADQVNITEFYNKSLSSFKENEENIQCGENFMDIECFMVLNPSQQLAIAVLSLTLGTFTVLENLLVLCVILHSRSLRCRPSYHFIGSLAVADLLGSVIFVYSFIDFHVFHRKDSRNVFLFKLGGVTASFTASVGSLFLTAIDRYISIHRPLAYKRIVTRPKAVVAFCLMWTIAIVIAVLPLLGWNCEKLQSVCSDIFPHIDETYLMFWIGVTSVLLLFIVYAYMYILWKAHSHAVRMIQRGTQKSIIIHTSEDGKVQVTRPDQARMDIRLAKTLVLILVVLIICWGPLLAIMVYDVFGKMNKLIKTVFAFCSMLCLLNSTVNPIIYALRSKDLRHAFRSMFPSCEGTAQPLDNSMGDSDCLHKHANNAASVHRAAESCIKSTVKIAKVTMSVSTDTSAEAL

[6] = tested on: R6/2 mice; assay: Survival of R6/2 mice; assay type: in vivo; conditions: 0.05 mg/ml in drinking water, n = 11
Description: Male R6/2 mice and littermate controls were originally obtained from Jackson Laboratories (Bar Harbor, ME, USA), and mated to female control mice (B6CBAFI/J). Offspring were identified by a polymerase chain reaction (PCR) genotyping technique of genomic DNA extracted from tail tissues using primers located in the transgene (5′-[…]-3′ and 5′-[…]- AGGAG-3′) to ensure that the number of CAG repeats remained approximately 150. In total, 211 R6/2 transgenic mice were used in this study. Animals were housed at the Institute of Biomedical Sciences Animal Care Facility under a 12-h light/dark cycle. Body weights of mice were recorded once daily. Animal experiments were performed under protocols approved by the Academia Sinica Institutional Animal Care and Utilization Committee, Taipei, Taiwan.
Supplementary file pone.0020934.s005.tif: Figure S5 Effect of T1-11 on the shorten lifespan and enlarged ventricle of R6/2 mice. Animals were given the vehicle (1% DMSO; CON) or T1-11 (0.05 mg/ml)-containing drinking water from the age of 7 weeks. (A) Survival was assessed. Specific comparison to R6/2 mice treated with the vehicle (p = 0.306; Mantel-Cox test). (B) Five weeks after T1-11 treatment, 3D-lMRI was performed to determine the ventricle-to-brain ratio of the indicated animals as described. * p<0.05. (TIF) Click here for additional data file.

[7] = tested on: Muscarinic, Non-Selective, Central; assay: Radioligand binding panel (Table S1); design: species or system rat; conditions: 10 μM T1-11, n 2
[8] = tested on: Calcium Channel L-Type, Dihydropyridine; assay: Radioligand binding panel (Table S1); design: species or system rat; conditions: 10 μM T1-11, n 2
[9] = target: T3, Orexin OX 1 (Homo sapiens, UniProt O43613); assay: Radioligand binding panel (Table S1); conditions: 10 μM T1-11, n 2
T3 construct: purchased MDS Pharma Services Taiwan
T3 sequence (O43613 whole entry): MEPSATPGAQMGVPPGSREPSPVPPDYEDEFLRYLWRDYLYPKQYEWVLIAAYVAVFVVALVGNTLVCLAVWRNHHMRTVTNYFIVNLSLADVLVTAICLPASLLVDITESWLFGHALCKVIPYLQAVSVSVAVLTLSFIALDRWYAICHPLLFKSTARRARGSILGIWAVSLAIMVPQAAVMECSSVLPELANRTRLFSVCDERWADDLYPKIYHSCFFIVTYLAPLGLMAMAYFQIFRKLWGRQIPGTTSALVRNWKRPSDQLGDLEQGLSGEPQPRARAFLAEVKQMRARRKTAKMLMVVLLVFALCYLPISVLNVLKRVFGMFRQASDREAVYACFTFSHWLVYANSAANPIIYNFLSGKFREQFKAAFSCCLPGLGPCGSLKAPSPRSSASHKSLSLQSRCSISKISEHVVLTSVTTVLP

[10] = tested on: Potassium Channel [KA]; assay: Radioligand binding panel (Table S1); design: species or system rat; conditions: 10 μM T1-11, n 2
[11] = target: T4, Ryanodine RyR3 (Rattus norvegicus, UniProt A0ABK0LPH6); assay: Radioligand binding panel (Table S1); conditions: 10 μM T1-11, n 2
T4 construct: purchased MDS Pharma Services Taiwan

[12] = target: T5, Serotonin (5-Hydroxytryptamine) 5-HT7 (Homo sapiens, UniProt P34969); assay: Radioligand binding panel (Table S1); conditions: 10 μM T1-11, n 2
T5 construct: purchased MDS Pharma Services Taiwan
T5 sequence (P34969 whole entry): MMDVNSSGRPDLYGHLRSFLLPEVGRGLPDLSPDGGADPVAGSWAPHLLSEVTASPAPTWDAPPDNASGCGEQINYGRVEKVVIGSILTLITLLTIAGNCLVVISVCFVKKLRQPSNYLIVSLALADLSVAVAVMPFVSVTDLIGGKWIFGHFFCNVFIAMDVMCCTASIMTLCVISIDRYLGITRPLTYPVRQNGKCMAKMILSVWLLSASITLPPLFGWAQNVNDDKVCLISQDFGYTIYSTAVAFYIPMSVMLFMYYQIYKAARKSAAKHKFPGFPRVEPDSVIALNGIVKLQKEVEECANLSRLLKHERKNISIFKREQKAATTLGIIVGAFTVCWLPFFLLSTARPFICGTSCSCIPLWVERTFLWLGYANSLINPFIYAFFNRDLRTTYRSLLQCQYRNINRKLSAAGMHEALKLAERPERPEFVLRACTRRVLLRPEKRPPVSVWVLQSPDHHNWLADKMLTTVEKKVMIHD

[13] = tested on: Purinergic P 2X; assay: Radioligand binding panel (Table S1); design: species or system rabbit; conditions: 10 μM T1-11, n 2
[14] = target: T6, Orphanin ORL1 (Homo sapiens, UniProt P41146); assay: Radioligand binding panel (Table S1); conditions: 10 μM T1-11, n 2
T6 construct: purchased MDS Pharma Services Taiwan
T6 sequence (P41146 whole entry): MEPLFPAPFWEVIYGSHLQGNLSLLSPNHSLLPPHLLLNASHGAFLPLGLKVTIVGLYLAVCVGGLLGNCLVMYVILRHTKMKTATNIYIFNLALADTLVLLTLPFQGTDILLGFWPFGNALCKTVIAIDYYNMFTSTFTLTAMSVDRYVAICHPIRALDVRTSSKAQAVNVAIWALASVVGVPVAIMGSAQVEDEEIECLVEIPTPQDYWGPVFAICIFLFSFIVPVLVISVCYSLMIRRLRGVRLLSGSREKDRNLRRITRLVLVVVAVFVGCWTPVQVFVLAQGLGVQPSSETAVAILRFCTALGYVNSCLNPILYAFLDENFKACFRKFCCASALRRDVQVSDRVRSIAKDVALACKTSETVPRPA

[15] = tested on: GABAA, Benzodiazepine, Central, Flunitrazepam; assay: Radioligand binding panel (Table S1); design: species or system rat; conditions: 10 μM T1-11, n 2
[16] = target: T7, Dopamine D2S (Homo sapiens, UniProt P14416); assay: Radioligand binding panel (Table S1); conditions: 10 μM T1-11, n 2
T7 construct: purchased MDS Pharma Services Taiwan

[17] = target: T8, Interleukin IL-2 (Mus musculus, UniProt P01590+P16297+P34902); assay: Radioligand binding panel (Table S1); conditions: 10 μM T1-11, n 2
T8 construct: purchased MDS Pharma Services Taiwan

[18] = tested on: GABAA, Benzodiazepine, Central, Ro-15-1788; assay: Radioligand binding panel (Table S1); design: species or system rat; conditions: 10 μM T1-11, n 2
[19] = target: T9, Somatostatin sst3 (Homo sapiens, UniProt P32745); assay: Radioligand binding panel (Table S1); conditions: 10 μM T1-11, n 2
T9 construct: purchased MDS Pharma Services Taiwan
T9 sequence (P32745 whole entry): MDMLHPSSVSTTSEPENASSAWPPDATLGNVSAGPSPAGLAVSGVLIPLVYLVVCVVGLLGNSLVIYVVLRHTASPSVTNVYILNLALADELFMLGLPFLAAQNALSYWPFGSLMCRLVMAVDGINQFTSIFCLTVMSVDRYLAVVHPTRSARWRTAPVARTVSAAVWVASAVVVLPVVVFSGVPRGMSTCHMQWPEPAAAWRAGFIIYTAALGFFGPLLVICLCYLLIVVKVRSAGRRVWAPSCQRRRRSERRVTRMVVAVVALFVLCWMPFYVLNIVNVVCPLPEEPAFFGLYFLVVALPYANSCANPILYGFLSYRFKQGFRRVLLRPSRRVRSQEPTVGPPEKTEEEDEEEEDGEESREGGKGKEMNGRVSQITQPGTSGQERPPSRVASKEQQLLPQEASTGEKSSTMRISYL

[20] = target: T10, Estrogen ERα (Homo sapiens, UniProt P03372); assay: Radioligand binding panel (Table S1); conditions: 10 μM T1-11, n 2
T10 construct: purchased MDS Pharma Services Taiwan

[21] = target: T11, Leukotriene, BLT (LTB4) (Homo sapiens, UniProt Q15722); assay: Radioligand binding panel (Table S1); conditions: 10 μM T1-11, n 2
T11 construct: purchased MDS Pharma Services Taiwan

[22] = target: T12, Galanin GAL2 (Homo sapiens, UniProt O43603); assay: Radioligand binding panel (Table S1); conditions: 10 μM T1-11, n 2
T12 construct: purchased MDS Pharma Services Taiwan

[23] = target: T13, Somatostatin sst4 (Homo sapiens, UniProt P31391); assay: Radioligand binding panel (Table S1); conditions: 10 μM T1-11, n 2
T13 construct: purchased MDS Pharma Services Taiwan

[24] = target: T14, Bradykinin B1 (Homo sapiens, UniProt P46663); assay: Radioligand binding panel (Table S1); conditions: 10 μM T1-11, n 2
T14 construct: purchased MDS Pharma Services Taiwan

[25] = target: T15, Aldosterone (Rattus norvegicus, UniProt P22199); assay: Radioligand binding panel (Table S1); conditions: 10 μM T1-11, n 2
T15 construct: purchased MDS Pharma Services Taiwan
T15 sequence (P22199 whole entry): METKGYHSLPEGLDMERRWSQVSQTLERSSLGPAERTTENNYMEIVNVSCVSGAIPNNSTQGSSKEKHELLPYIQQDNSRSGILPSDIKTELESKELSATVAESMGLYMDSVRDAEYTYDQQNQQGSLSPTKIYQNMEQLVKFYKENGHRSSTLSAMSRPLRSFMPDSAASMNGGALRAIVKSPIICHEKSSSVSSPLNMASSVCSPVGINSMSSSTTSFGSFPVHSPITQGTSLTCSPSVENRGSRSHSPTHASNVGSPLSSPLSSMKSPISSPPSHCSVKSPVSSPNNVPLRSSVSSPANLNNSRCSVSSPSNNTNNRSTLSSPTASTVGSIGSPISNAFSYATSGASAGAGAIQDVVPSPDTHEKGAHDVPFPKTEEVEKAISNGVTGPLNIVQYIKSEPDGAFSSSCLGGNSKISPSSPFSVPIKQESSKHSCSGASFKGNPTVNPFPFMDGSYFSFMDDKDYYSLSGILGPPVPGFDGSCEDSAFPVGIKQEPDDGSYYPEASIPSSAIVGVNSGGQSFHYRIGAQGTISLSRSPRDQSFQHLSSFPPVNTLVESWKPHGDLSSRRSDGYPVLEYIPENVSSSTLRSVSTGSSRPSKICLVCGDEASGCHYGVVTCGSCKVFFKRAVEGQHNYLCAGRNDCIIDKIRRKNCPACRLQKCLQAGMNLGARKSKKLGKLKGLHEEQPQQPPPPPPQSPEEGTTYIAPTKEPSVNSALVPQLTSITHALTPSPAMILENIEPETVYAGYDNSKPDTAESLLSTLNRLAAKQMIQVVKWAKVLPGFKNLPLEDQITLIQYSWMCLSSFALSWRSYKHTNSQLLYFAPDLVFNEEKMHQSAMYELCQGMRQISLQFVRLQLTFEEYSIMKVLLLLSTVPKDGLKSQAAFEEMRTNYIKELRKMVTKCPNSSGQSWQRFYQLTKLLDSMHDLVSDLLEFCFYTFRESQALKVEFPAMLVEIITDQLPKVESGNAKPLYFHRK

[26] = target: T16, Epidermal Growth Factor (EGF) (Homo sapiens, UniProt P00533); assay: Radioligand binding panel (Table S1); conditions: 10 μM T1-11, n 2
T16 construct: purchased MDS Pharma Services Taiwan

[27] = target: T17, adenosine transporter (ENT1) (Rattus norvegicus, UniProt O54698); assay: Adenosine uptake by PC12 cells; assay type: cell-based
T17 construct: endogenous in cells; host or cells: PC12
T17 sequence (O54698 whole entry): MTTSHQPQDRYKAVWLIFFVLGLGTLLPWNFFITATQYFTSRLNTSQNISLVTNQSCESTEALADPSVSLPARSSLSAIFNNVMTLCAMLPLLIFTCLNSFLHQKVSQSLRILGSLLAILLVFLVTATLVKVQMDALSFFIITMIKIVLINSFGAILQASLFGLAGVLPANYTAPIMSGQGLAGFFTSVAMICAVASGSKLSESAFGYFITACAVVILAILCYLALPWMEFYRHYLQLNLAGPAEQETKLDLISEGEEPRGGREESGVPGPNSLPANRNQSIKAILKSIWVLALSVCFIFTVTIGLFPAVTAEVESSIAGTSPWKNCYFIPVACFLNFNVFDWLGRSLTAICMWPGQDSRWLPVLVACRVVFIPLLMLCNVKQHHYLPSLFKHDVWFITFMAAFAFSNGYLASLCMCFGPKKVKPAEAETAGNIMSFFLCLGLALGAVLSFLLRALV
Procedure: For adenosine uptake of PC12, cells were seeded approximately 16 h before each uptake assay at ∼2×10^5 cells per well in 24-well plates coated with poly-L-lysine. To perform adenosine uptake assays, cells were washed with Krebs Ringer-Henseleit buffer [125 mM NaCl, 4.8 mM KCl, 1.3 mM CaCl2, 1.2 mM MgSO4, 1.2 mM KH2PO4, 5.6 mM glucose, 10 µM pargyline, and 10 mM HEPES (pH 7.2)] and incubated in the same buffer for 10 min at 37°C in the presence or absence of the indicated reagent(s). Adenosine uptake was initiated by adding [^3H]adenosine at the indicated concentration (0.5 µCi/mmol) at 37°C. At the end of the incubation, cells were placed on ice, washed twice with ice-cold Krebs Ringer-Henseleit buffer to remove free [^3H]adenosine, lysed with 1% Triton X-100, and added to scintillation vials to count the radioactivity. Non-specific uptake was determined as the uptake performed in the presence of 100 µM adenosine, and was subtracted from the total adenosine uptake.

[28] = tested on: GABAA, Non-Selective; assay: Radioligand binding panel (Table S1); design: species or system rat; conditions: 10 μM T1-11, n 2
[29] = target: T18, Lipoxygenase 15-LO (Oryctolagus cuniculus, UniProt P12530); assay: Radioligand binding panel (Table S1); design: species or system rabbit; conditions: 10 μM T1-11, n 2
T18 construct: purchased MDS Pharma Services Taiwan
T18 sequence (P12530 whole entry): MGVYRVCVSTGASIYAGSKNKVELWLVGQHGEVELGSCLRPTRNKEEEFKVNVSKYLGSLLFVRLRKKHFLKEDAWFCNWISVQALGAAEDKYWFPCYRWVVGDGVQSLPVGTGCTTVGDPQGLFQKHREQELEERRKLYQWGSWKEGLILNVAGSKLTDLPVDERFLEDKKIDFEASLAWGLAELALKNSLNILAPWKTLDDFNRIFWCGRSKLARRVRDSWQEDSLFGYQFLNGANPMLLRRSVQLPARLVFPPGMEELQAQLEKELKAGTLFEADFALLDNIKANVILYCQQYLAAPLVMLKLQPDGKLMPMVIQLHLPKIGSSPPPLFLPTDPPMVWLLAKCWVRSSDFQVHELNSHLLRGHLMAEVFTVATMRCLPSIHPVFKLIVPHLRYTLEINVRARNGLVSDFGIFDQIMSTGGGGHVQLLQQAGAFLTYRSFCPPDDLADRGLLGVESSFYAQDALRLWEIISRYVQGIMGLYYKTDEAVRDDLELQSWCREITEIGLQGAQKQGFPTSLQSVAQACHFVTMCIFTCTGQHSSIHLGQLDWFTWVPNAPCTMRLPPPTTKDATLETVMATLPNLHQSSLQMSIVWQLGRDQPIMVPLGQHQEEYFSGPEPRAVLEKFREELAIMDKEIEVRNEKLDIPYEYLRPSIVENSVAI

## OC[C@H]1O[C@@H](n2cnc3c(NCc4ccc(O)cc4)ncnc32)[C@H](O)[C@@H]1O [T1-11, N ^6-(4-hydroxybenzyl)adenine riboside]
[1]
  % Inhibition: 10%
[2]
  inhibition at 10 µM: 0%
[3]
  % Inhibition: -1%
[4]
  % Inhibition: -4%
[5]
  inhibition at 10 µM: -7%
[6]
  Mean survival time: 103.3 ± 3.9 days
[7]
  % Inhibition: 12%
[8]
  % Inhibition: -4%
[9]
  inhibition at 10 µM: -13%
[10]
  % Inhibition: 1%
[11]
  inhibition at 10 µM: -1%
[12]
  inhibition at 10 µM: 2%
[13]
  % Inhibition: 11%
[14]
  inhibition at 10 µM: 10%
[15]
  % Inhibition: 6%
[16]
  inhibition at 10 µM: 10%
[17]
  inhibition at 10 µM: 0%
[18]
  % Inhibition: 1%
[19]
  inhibition at 10 µM: 15%
[20]
  inhibition at 10 µM: 32%
[21]
  inhibition at 10 µM: -6%
[22]
  inhibition at 10 µM: 0%
[23]
  inhibition at 10 µM: 5%
[24]
  inhibition at 10 µM: -8%
[25]
  inhibition at 10 µM: 2%
[26]
  inhibition at 10 µM: -5%
[27]; Adenosine transporter (ENT1), suppressed the uptake of adenosine
  Function: inhibitor
[27]; PC12 cells
  Inhibition of adenosine uptake: inhibited adenosine uptake by PC12 cells in a dose-dependent manner
[28]
  % Inhibition: 5%
[29]
  inhibition at 10 µM: 14%
